Source: patent US20230295200A1 (REGENTS OF THE UNIVERSITY OF MICHIGAN, priority 2022, published 2023)

Tests used:
STAT5A = molecular target: T1, STAT5A (Homo sapiens, UniProt P42229); assay: Fluorescence polarization (FP) binding assay, STAT5A; details: FP competition, 5 nM fluorescein-labeled tracer, 200 nM protein, PBS pH7.4
T1 sequence (P42229 1-794): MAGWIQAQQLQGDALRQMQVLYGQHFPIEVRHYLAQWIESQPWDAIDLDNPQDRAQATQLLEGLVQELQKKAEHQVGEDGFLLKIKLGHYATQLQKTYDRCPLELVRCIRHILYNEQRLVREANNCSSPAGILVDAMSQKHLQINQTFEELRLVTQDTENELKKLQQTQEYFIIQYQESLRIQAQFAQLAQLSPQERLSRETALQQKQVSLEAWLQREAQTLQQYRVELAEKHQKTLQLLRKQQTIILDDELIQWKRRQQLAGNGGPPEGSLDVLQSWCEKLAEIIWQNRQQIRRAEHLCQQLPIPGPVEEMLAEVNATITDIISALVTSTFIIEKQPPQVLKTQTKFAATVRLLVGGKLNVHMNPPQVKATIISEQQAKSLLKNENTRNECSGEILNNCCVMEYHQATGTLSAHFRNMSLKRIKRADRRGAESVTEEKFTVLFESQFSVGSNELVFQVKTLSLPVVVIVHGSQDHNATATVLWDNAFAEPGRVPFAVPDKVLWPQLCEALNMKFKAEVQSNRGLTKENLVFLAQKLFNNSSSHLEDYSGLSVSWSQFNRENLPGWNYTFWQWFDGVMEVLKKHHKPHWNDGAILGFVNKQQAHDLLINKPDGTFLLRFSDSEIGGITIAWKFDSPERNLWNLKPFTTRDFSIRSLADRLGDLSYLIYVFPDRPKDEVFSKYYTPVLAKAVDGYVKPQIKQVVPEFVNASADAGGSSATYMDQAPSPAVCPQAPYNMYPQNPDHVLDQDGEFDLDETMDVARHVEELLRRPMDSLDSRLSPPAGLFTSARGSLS
Procedure, shortened: (§1)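 Polarization read after 1 h equilibration at room temperature (preceded by 15 min shaking) of 200 nM STAT5 and/or STAT6 with 5 nM fluorescein tracer. Buffer: PBS pH 7.4 plus 0.01% BGG, 0.01% Tween-20, 2 mM DTT; inhibition constants derived by nonlinear fitting.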

STAT6 protein = molecular target: T2, STAT6 protein (Homo sapiens, UniProt P42226); assay: Fluorescence polarization (FP) binding assay, STAT6; details: FP competition, 5 nM fluorescein-labeled tracer, 200 nM protein, PBS pH7.4; read-out: Binding STAT6
T2 sequence (P42226 1-847): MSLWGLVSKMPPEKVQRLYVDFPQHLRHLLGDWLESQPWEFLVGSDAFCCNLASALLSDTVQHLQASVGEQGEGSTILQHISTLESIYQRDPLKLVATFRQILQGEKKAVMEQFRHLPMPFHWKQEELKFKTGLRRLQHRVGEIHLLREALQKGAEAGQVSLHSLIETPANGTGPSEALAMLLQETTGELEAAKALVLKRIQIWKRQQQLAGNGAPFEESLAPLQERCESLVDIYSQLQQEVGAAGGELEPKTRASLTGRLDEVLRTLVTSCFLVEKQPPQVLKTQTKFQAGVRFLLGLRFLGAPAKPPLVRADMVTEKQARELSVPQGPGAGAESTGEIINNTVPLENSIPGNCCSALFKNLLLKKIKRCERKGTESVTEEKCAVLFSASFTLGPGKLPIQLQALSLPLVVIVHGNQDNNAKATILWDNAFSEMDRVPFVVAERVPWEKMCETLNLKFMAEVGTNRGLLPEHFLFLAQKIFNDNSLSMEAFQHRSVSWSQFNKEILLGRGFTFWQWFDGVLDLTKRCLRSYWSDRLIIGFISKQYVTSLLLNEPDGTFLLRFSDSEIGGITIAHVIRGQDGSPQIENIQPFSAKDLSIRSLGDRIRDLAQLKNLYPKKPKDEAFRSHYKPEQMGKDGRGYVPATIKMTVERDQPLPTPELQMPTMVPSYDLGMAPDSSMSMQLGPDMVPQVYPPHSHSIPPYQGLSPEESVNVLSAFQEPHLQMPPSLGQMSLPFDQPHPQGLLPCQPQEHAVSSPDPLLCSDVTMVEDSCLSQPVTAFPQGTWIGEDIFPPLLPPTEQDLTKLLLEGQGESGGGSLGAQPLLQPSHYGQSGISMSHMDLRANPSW
Procedure, shortened: as §1

| Ki (STAT5A) | Ki (STAT6 protein) | SMILES |
| --- | --- | --- |
| 1 to 10 µM | 1 to 10 µM | CC(C)(C)[C@H](NC(=O)c1cc2cc(C(F)(F)P(=O)(O)O)ccc2s1)C(=O)N1CCCCC[C@H]1C(=O)N1CC[C@H](c2ccccc2)C1 [Compound 185, ((2-(((S)-3,3-dimethyl-1-oxo-1-((S)-2-((R)-3-phenylpyrrolidine-1-carbonyl)azepan-1-yl)butan-2-yl)carbamoyl)benzo[b]thiophen-5-yl)difluoromethyl)phosphonic acid] |
| > 10 µM | 1 to 10 µM | CC(C)(C)[C@H](NC(=O)c1cc2cc(C(F)(F)P(=O)(O)O)ccc2s1)C(=O)N1Cc2ccccc2[C@H]1C(=O)N1Cc2ccccc2C1 [Compound 199, (difluoro(2-(((S)-1-((S)-1-(isoindoline-2-carbonyl)isoindolin-2-yl)-3,3-dimethyl-1-oxobutan-2-yl)carbamoyl)benzo[b]thiophen-5-yl)methyl)phosphonic acid] |
| > 10 µM | > 10 µM | CC(C)(C)[C@H](NC(=O)c1cc2cc(C(F)(F)P(=O)(O)O)ccc2s1)C(=O)N1CCC[C@H]1C(=O)N1C[C@@H]2CCN(C(=O)c3ccc(F)cc3)[C@@H]2C1 [Compound 97, (difluoro(2-(((S)-1-((S)-2-((3aS,6aS)-1-(4-fluorobenzoyl)octahydropyrrolo[3,4-b]pyrrole-5-carbonyl)pyrrolidin-1-yl)-3,3-dimethyl-1-oxobutan-2-yl)carbamoyl)benzo[b]thiophen-5-yl)methyl)phosphonic acid] |
| > 10 µM | 0.1 to 1 µM | CC(=O)N1CC[C@H]2CC[C@@H](C(=O)N3CCOC(c4cccc(Cl)c4)C3)N2C(=O)[C@@H](NC(=O)c2cc3cc(C(F)(F)P(=O)(O)O)ccc3s2)C1 (stereo partly drawn) [Compound 162, ((2-(((5S,8S,10aR)-3-acetyl-8-(2-(3-chlorophenyl)morpholine-4-carbonyl)-6-oxodecahydropyrrolo[1,2-a][1,5]diazocin-5-yl)carbamoyl)benzo[b]thiophen-5-yl)difluoromethyl)phosphonic acid] |
| > 10 µM | 1 to 10 µM | CC(=O)N1CC[C@H]2CC[C@@H](C(=O)N3CCOC(c4ccccc4C)C3)N2C(=O)[C@@H](NC(=O)c2cc3cc(C(F)(F)P(=O)(O)O)ccc3s2)C1 (stereo partly drawn) [Compound 164, ((2-(((5S,8S,10aR)-3-acetyl-6-oxo-8-(2-(o-tolyl)morpholine-4-carbonyl)decahydropyrrolo[1,2-a][1,5]diazocin-5-yl)carbamoyl)benzo[b]thiophen-5-yl)difluoromethyl)phosphonic acid] |
| > 10 µM | > 10 µM | CC(C)(C)[C@H](NC(=O)c1cc2cc(C(F)(F)P(=O)(O)O)ccc2s1)C(=O)N1Cc2ccccc2CC1C(=O)N1CC[C@@H](c2ccccc2)C1 (stereo partly drawn) [Compound 192, ((2-(((2S)-3,3-dimethyl-1-oxo-1-(3-((S)-3-phenylpyrrolidine-1-carbonyl)-3,4-dihydroisoquinolin-2(1H)-yl)butan-2-yl)carbamoyl)benzo[b]thiophen-5-yl)difluoromethyl)phosphonic acid] |
| > 10 µM | 1 to 10 µM | CC(C)(C)[C@H](NC(=O)c1cc2cc(C(F)(F)P(=O)(O)O)ccc2[nH]1)C(=O)N1CCC[C@H]1c1ncc(-c2ccccc2)s1 [Compound 21, ((2-(((S)-3,3-dimethyl-1-oxo-1-((S)-2-(5-phenylthiazol-2-yl)pyrrolidin-1-yl)butan-2-yl)carbamoyl)-1H-indol-5-yl)difluoromethyl)phosphonic acid] |
| 1 to 10 µM | 0.1 to 1 µM | CC(C)(C)[C@H](NC(=O)c1cc2cc(C(F)(F)P(=O)(O)O)ccc2s1)C(=O)N1CCC[C@H]1C(=O)N(c1ccc(I)cc1)c1ccc(C(=O)OCc2ccccc2)cc1 [Compound 37, ((2-(((S)-1-((S)-2-((4-((benzyloxy)carbonyl)phenyl)(4-iodophenyl)carbamoyl)pyrrolidin-1-yl)-3,3-dimethyl-1-oxobutan-2-yl)carbamoyl)benzo[b]thiophen-5-yl)difluoromethyl)phosphonic acid] |
| > 10 µM | 1 to 10 µM | CC(C)(C)[C@H](NC(=O)c1cc2cc(C(F)(F)P(=O)(O)O)ccc2s1)C(=O)N1Cc2ccccc2C1C(=O)N1CCO[C@@H](c2ccccc2)C1 (stereo partly drawn) [Compound 142, ((2-(((2S)-3,3-dimethyl-1-oxo-1-(1-((S)-2-phenylmorpholine-4-carbonyl)isoindolin-2-yl)butan-2-yl)carbamoyl)benzo[b]thiophen-5-yl)difluoromethyl)phosphonic acid] |
| > 10 µM | 0.1 to 1 µM | CC(=O)N1CC[C@H]2CC[C@@H](C(=O)N3CCC[C@H](c4ccccc4)C3)N2C(=O)[C@@H](NC(=O)c2cc3cc(C(F)(F)P(=O)(O)O)ccc3s2)C1 [Compound 158, ((2-(((5S,8S,10aR)-3-acetyl-6-oxo-8-((R)-3-phenylpiperidine-1-carbonyl)decahydropyrrolo[1,2-a][1,5]diazocin-5-yl)carbamoyl)benzo[b]thiophen-5-yl)difluoromethyl)phosphonic acid] |
| 1 to 10 µM | 1 to 10 µM | CC(=O)N1CCN(C(=O)[C@@H](NC(=O)c2cc3cc(C(F)(F)P(=O)(O)O)ccc3s2)C(C)(C)C)[C@H](C(=O)N2CC[C@H](c3ccccc3)C2)C1 [Compound 176, ((2-(((S)-1-((S)-4-acetyl-2-((R)-3-phenylpyrrolidine-1-carbonyl)piperazin-1-yl)-3,3-dimethyl-1-oxobutan-2-yl)carbamoyl)benzo[b]thiophen-5-yl)difluoromethyl)phosphonic acid] |
| > 10 µM | 0.1 to 1 µM | CC(=O)N1CC[C@H]2CC[C@@H](C(=O)N3CCOC(c4ccc(F)cc4)C3)N2C(=O)[C@@H](NC(=O)c2cc3cc(C(F)(F)P(=O)(O)O)ccc3s2)C1 (stereo partly drawn) [Compound 161, ((2-(((5S,8S,10aR)-3-acetyl-8-(2-(4-fluorophenyl)morpholine-4-carbonyl)-6-oxodecahydropyrrolo[1,2-a][1,5]diazocin-5-yl)carbamoyl)benzo[b]thiophen-5-yl)difluoromethyl)phosphonic acid] |
| > 10 µM | 0.1 to 1 µM | CC(C)(C)[C@H](NC(=O)/C=C/c1ccc(C(F)(F)P(=O)(O)O)cc1)C(=O)N1CCC[C@H]1C(=O)N(c1ccccc1)c1ccc(I)cc1 [Compound 1, (difluoro(4-((E)-3-(((S)-1-((S)-2-((4-iodophenyl)(phenyl)carbamoyl)pyrrolidin-1-yl)-3,3-dimethyl-1-oxobutan-2-yl)amino)-3-oxoprop-1-en-1-yl)phenyl)methyl)phosphonic acid] |
| > 10 µM | 1 to 10 µM | CN(Cc1ccc(Cl)cc1)C(=O)[C@@H]1CCCN1C(=O)[C@@H](NC(=O)c1cc2cc(C(F)(F)P(=O)(O)O)ccc2s1)C(C)(C)C [Compound 73, ((2-(((S)-1-((S)-2-((4-chlorobenzyl)(methyl)carbamoyl)pyrrolidin-1-yl)-3,3-dimethyl-1-oxobutan-2-yl)carbamoyl)benzo[b]thiophen-5-yl)difluoromethyl)phosphonic acid] |
| 1 to 10 µM | 0.1 to 1 µM | CNC(=O)CCN(C(=O)[C@@H]1CCCN1C(=O)[C@@H](NC(=O)c1cc2cc(C(F)(F)P(=O)(O)O)ccc2s1)C(C)(C)C)c1ccc(Br)cc1 [Compound 45, ((2-(((S)-1-((S)-2-((4-bromophenyl)(3-(methylamino)-3-oxopropyl)carbamoyl)pyrrolidin-1-yl)-3,3-dimethyl-1-oxobutan-2-yl)carbamoyl)benzo[b]thiophen-5-yl)difluoromethyl)phosphonic acid] |
